# Data taken from ChEMBL document CHEMBL1201862, “PubChem BioAssay data set” (2004).
# Calls of active or inactive are those of the source.
# Columns and labels:
# [1] = Luminescence Cell-Based Dose Response HTS to Identify Activators of Luciferase Translation or Activity in H4 […] Cells. [Related pubchem assays: 1829 (Project Summary), 1814 (Primary HTS)]; type: functional
# [2] = target: Cytochrome P450 3A4 (Homo sapiens, UniProt P08684);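 also: CYP3A4 tested as one member of a cytochrome P450 panel screen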
# [3] = target: Cytochrome P450 2C19 (Homo sapiens, UniProt P33261); assay: Cytochrome panel assay with activity outcomes. Panel member name: p450-cyp2c19 Compounds with AC50 equal or less than 10 uM are considered active; type: functional
# [4] = Trypanosoma cruzi growth suppression in host cells – NIH3T3 host cells, beta-gal luminescence, confirmation (AID 2044); type: functional, cell-based;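 also: intracellular parasites grown in NIH/3T3 mouse fibroblasts as host cells; luminescent beta-galactosidase reporter signal from transgenic T. cruzi replicating inside host cells; inhibitors lower the luminescence signal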
# [5] = NIH3T3 cell viability loss – ATP luminescence, mouse fibroblasts, counter-screen, dose response (AID 2010); type: functional, cell-based;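 also: cells exposed to compound for about 90 hours before reading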
# [6] = target: Cytochrome P450 2C9 (Homo sapiens, UniProt P11712)
# [7] = target: T1, Rac GTPase-activating protein 1 (Homo sapiens, UniProt Q9H0H5); assay: blockers of MgcRacGAP-driven Rac1 GTP hydrolysis – biochemical, ADP Hunter fluorescence, primary and confirmatory, confirmation (AID 624330); type: functional
# T1 sequence (Q9H0H5 whole entry): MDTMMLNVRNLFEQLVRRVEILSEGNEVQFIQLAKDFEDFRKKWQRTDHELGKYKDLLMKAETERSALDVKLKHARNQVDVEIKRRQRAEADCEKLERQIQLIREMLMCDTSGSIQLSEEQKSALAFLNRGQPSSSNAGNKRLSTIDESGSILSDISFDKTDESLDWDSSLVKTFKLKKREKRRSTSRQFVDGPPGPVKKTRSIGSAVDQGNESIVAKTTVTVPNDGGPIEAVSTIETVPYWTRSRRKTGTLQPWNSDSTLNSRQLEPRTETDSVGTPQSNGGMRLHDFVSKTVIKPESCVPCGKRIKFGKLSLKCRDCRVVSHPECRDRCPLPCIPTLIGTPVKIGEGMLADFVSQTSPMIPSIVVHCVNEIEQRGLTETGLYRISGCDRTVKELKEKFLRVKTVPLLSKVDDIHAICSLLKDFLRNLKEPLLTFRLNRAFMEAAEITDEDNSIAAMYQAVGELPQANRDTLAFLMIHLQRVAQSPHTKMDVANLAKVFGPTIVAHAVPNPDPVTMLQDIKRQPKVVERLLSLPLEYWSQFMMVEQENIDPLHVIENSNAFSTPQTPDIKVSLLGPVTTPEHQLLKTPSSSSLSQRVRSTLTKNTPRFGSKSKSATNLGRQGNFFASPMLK
# Sequence of Cytochrome P450 2C19 (P33261 whole entry): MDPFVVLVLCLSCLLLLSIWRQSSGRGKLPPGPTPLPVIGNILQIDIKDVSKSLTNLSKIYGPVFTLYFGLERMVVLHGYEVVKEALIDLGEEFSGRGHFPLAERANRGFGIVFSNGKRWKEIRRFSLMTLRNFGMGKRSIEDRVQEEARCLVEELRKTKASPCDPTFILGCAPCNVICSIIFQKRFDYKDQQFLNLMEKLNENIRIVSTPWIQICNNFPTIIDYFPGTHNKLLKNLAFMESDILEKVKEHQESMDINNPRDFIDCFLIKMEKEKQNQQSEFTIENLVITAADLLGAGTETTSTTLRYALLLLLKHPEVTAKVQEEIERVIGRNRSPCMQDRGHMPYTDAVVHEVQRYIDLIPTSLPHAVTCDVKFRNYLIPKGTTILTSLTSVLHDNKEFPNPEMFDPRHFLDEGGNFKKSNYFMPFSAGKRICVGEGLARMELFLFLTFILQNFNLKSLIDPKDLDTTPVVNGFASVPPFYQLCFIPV
# Sequence of Cytochrome P450 2C9 (P11712 whole entry): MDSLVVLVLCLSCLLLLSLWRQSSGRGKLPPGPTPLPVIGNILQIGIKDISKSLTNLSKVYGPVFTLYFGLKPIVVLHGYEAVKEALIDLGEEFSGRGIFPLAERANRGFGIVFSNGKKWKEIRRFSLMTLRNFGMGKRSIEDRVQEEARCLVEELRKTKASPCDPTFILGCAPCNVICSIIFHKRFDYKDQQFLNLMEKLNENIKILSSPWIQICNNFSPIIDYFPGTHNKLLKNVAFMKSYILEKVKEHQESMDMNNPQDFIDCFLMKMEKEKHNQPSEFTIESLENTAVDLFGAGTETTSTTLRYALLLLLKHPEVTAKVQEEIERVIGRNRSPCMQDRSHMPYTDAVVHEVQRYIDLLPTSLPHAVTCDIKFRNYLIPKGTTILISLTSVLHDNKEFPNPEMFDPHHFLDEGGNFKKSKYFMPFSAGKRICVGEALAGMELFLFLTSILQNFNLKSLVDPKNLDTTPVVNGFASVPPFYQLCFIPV
# Sequence of Cytochrome P450 3A4 (P08684 whole entry): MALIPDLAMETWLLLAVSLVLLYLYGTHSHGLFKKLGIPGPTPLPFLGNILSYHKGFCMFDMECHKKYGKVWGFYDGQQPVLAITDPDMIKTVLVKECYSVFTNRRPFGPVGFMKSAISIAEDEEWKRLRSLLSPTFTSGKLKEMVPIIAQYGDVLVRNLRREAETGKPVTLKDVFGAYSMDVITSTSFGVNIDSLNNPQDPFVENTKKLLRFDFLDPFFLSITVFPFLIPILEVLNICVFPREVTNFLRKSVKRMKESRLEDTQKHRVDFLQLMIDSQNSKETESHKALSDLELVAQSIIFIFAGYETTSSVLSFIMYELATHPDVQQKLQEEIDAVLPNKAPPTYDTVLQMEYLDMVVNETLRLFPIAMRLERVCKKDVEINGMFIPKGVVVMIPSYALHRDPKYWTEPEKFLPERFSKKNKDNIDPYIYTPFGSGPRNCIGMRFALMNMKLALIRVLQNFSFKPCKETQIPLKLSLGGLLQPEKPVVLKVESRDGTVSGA
smiles,measurement,setting,value
Cc1ccc(NC(=O)c2ccc(OC(=O)CCN3C(=O)c4ccccc4C3=O)cc2)cc1,EC50,[1],37.8 µM (active)
CCNc1ncc2nc(C)c(=O)n(CCc3ccccc3)c2n1,AC50,[2],15.8 µM (inconclusive)
C[C@H]1COC(=O)[C@H]2CCCN2C(=O)[C@@H](C)COC(=O)[C@H](Cc2ccccc2)NC1=O,AC50,[3],inconclusive
Cc1ccc(CS(=O)(=O)CCC(=O)NCCCN2CCCC2)cc1,AC50,[3],inconclusive
CC(=O)OC1COC(N2CCc3cc([N+](=O)[O-])ccc32)C(OC(C)=O)C1OC(C)=O (stereo not drawn),AC50,[2],25.1 µM (inconclusive)
same,AC50,[3]; read-out: AC50,3.98 µM (inconclusive)
CCCn1c2c(c(O)c(C(=O)Nc3ccc(OC)cc3)c1=O)CCCC2,EC50,[4],2.88 µM (active)
same,EC50,[5],> 30 µM (not active)
COc1ccc2oc(C(=O)c3ccccc3)c(N)c2c1,AC50,[2],14.1 µM (inconclusive)
same,AC50,[3]; read-out: AC50,5.01 µM (inconclusive)
CN(C)c1nc(NC(C)(C)C)nc(NC(C)(C)C)n1,EC50,[4],0.596 µM (active)
same,EC50,[5],> 60 µM (not active)
Cc1[nH]c2ccccc2c1C(=O)CN1CC=C(c2ccccc2)CC1,EC50,[4],0.857 µM (active)
same,EC50,[5],> 60 µM (not active)
CCc1cccc(CN2CCC(CNC(=O)Nc3ccc(Cl)cc3)CC2)c1,EC50,[4],1.25 µM (active)
same,EC50,[5],> 60 µM (not active)
COC(=O)C1CCN(c2cc(=O)n(C3CCCCC3)c(=O)[nH]2)CC1,AC50,[2],14.1 µM (inconclusive)
same,AC50,[6],7.94 µM (inconclusive)
CC(C)C(=O)Nc1ccc(C(=O)NNC(=O)CCCOc2ccc(Cl)cc2Cl)cc1,AC50,[6],2.51 µM (inconclusive)
Cc1ccccc1-c1ccc2ncnc(N3CCNCC3)c2c1,AC50,[2],15.8 µM (inconclusive)
same,AC50,[3]; read-out: AC50,15.8 µM (inconclusive)
O=C1CN2CCN(CC2)CC(=O)Nc2ccc(cc2)S(=O)(=O)c2ccc(cc2)NC(=O)CN2CCN(CC2)CC(=O)Nc2ccc(cc2)S(=O)(=O)c2ccc(cc2)N1,AC50,[6],0.398 µM (inconclusive)
Nc1ccc(Oc2ccc3nc(-c4ccccc4)c(-c4ccc([N+](=O)[O-])cc4)nc3c2)cc1,AC50,[6],3.98 µM (inconclusive)
O=C(c1cc(-c2ccncc2)nc2ccccc12)N1CCN(c2ccc(N3CCOCC3)nn2)CC1,AC50,[3]; read-out: AC50,15.8 µM (inconclusive)
COc1ccc(OC)c(CN2CCN(Cc3cccc4ccccc34)CC2)c1,IC50,[7],66 µM (active)
COc1ccccc1N1CCN(CC(=O)c2ccc(F)cc2)CC1,IC50,[7],157 µM (active)
COc1ccc(CNC(=O)C2CCCN(Cc3nc(-c4cccc(C)c4)oc3C)C2)cc1 (stereo not drawn),EC50,[4],0.381 µM (active)
same,EC50,[5],> 60 µM (not active)
COc1ccc(NC2CCCN(C(=O)CCCn3cncn3)C2)cc1OC (stereo not drawn),IC50,[7],237 µM (active)
CCN(CC)S(=O)(=O)N1CCC(C(=O)NCc2ccc(C)cc2)CC1,AC50,[3],inconclusive
Cc1cc(Br)ccc1NC(=O)CCSc1ccccc1,AC50,[2],6.31 µM (inconclusive)
COc1ccccc1-c1cncnc1NCCc1cnc[nH]1,AC50,[6],0.501 µM (inconclusive)
O=c1c(-c2cccc(Cl)c2)nc2cncnc2n1-c1ccccc1,AC50,[2],25.1 µM (inconclusive)
CN1CCN(c2ncnc3ccc(-c4ccc5c(c4)OCO5)cc23)CC1,AC50,[3]; read-out: AC50,39.8 µM (inconclusive)
CCCCOC(=O)CSc1nnc(-c2cc(OC)c(OC)c(OC)c2)o1,AC50,[2],25.1 µM (inconclusive)
same,AC50,[6],8.91 µM (inconclusive)
CN1CCN(CCOCCOc2ccc(Br)cc2Cl)CC1,IC50,[7],84.1 µM (active)
Cc1nn(C(C)C(=O)N2CCCC2)c(=O)c2nn(-c3ccccc3)c(C)c12 (stereo not drawn),EC50,[4],48.4 µM (active)
same,EC50,[5],> 60 µM (not active)
COc1cc(C(=O)Nc2ccc3c(c2)N(C(=O)CCN(C)C)c2ccccc2CC3)cc(OC)c1OC,EC50,[4],0.642 µM (active)
same,EC50,[5],> 60 µM (not active)
COCCNCc1nc(O)c2c(-c3ccccc3)c(C)sc2n1,IC50,[7],225 µM (active)
CS(=O)(=O)N1CCC2(CC1)CN(c1ncccn1)C2,AC50,[2],20 µM (inconclusive)
COC(=O)[C@@]1(Cc2ccc(F)cc2)[C@@H]2C(=CC(=O)[C@H]2CC(=O)C(=O)N2CCCC2)CN1C(=O)c1ccccc1,AC50,[2],5.01 µM (inconclusive)
CCOC(=O)c1cc(NC(=O)c2ccc(OC)cc2)c(=O)oc1-c1ccccc1,AC50,[6],2.24 µM (inconclusive)
CN(Cc1ccco1)c1ncncc1-c1ccc2c(c1)OCO2,AC50,[6],0.794 µM (inconclusive)
Cc1cc(/C=C2/NC(=O)N(Cc3ccccc3F)C2=O)c(C)n1C(C)C,EC50,[4],0.154 µM (active)
same,EC50,[5],> 60 µM (not active)
CCC(O)CNc1nc(-n2nc(C)cc2C)nc2sc3c(c12)CC(C)(C)OC3 (stereo not drawn),AC50,[2],7.08 µM (inconclusive)
same,AC50,[3]; read-out: AC50,20 µM (inconclusive)
CSc1nc(N)nc(SCC(=O)C23CC4CC(CC(C4)C2)C3)c1C#N,EC50,[4],1.59 µM (active)
same,EC50,[5],> 60 µM (not active)
COc1cc(OC)c(OC)cc1CN1CCN(C(=O)c2cccc3ccccc23)CC1,IC50,[7],244 µM (active)
COc1ccc(-c2cnc(N)nc2-c2ccc(OCc3ccccc3)cc2O)cc1,EC50,[4],2.19 µM (active)
same,EC50,[5],10.6 µM (active)
O=C(CN(c1ccccc1)S(=O)(=O)c1ccccc1[N+](=O)[O-])NN=C1CCCCCCC1,AC50,[6],1.58 µM (inconclusive)
O=C(Nc1ccccc1N1CCCC1)c1ccc([N+](=O)[O-])cc1Cl,EC50,[4],2.37 µM (active)
same,EC50,[5],> 60 µM (not active)
Cc1noc(C)c1C(=O)N1CCC2(CCN(Cc3ccncc3)CC2)CC1,AC50,[2],12.6 µM (inconclusive)
CCCN1CCC(N(C)CCc2ccc(OC)c(OC)c2)CC1,EC50,[4],0.124 µM (active)
same,EC50,[5],> 60 µM (not active)
CCC(=O)NC(Nc1sc2c(c1C(=O)OC)CCCC2)(C(F)(F)F)C(F)(F)F,AC50,[6],1.26 µM (inconclusive)
O=C(CSc1ccc2ccccc2c1)N1CCN(c2ccc(O)cc2)CC1,IC50,[7],45.1 µM (active)
CCOC(=O)Nc1ccc2c(c1)N(C(=O)CCN1CCN(C)CC1)c1ccccc1S2,AC50,[2],1.26 µM (inconclusive)
same,AC50,[3]; read-out: AC50,1.26 µM (inconclusive)
Cn1nc([N+](=O)[O-])nc1Sc1ccc(Cl)cc1,EC50,[4],0.108 µM (active)
same,EC50,[5],> 30 µM (not active)
CCC(=O)N[C@@H]1CCc2cccc(OC)c2C1,AC50,[6],15.8 µM (inconclusive)
CCCCNC(=O)C1CCN(Cc2ccccn2)CC1,AC50,[3]; read-out: AC50,35.5 µM (inconclusive)
CCN(CC)CCN(C(=O)c1cccc([N+](=O)[O-])c1)c1nc2ccc(OC)cc2s1,EC50,[4],0.158 µM (active)
same,EC50,[5],> 60 µM (inconclusive)
CCOC(=O)c1sc(NC(=O)CCCCCN2C(=O)c3cccc4cccc(c34)C2=O)nc1C,AC50,[2],5.01 µM (inconclusive)
same,AC50,[3]; read-out: AC50,6.31 µM (inconclusive)
same,AC50,[6],2.24 µM (inconclusive)
CC(C)CC1NC(=S)N(C2CCCCC2)C1=O (stereo not drawn),AC50,[2],20 µM (inconclusive)
CC(C)(C)C(=O)OCc1cn(-c2ccc(Cl)cc2)nn1,AC50,[6],28.2 µM (inconclusive)
Cc1ccccc1-c1ccc2ncnc(NCc3cccs3)c2c1,AC50,[6],1.26 µM (inconclusive)
O=C(O)C1CCN(c2ncccn2)CC1,AC50,[3]; read-out: AC50,0.0316 µM (inconclusive)
CC(=O)c1cccc(Nc2cc(C)nc3c(C)cc(C)cc23)c1,EC50,[4],1.42 µM (active)
same,EC50,[5],> 60 µM (inconclusive)
O=C(NC1CCCCC1)C(c1ccccc1)N1CCOCC1 (stereo not drawn),AC50,[3]; read-out: AC50,20 µM (inconclusive)
COc1cc(C(=O)N/N=C(\C)c2ccc(NC(=O)Cc3ccccc3)cc2)ccc1O,IC50,[7],145 µM (active)
CN(C)/N=C/c1ccc(OC(=O)c2cccc([N+](=O)[O-])c2)cc1,IC50,[7],50.4 µM (active)
Cc1ccc(/C=N/n2c(S)nnc2COc2ccccc2)s1,AC50,[3]; read-out: AC50,2.24 µM (inconclusive)
COc1ccc(CNc2ncncc2-c2ccccc2OC)c(OC)c1,AC50,[6],0.794 µM (inconclusive)
C[N+]1(C)CCN(c2ccccc2)CC1 [DIMETHYLPHENYLPIPERAZINIUM],AC50,[2],10 µM (inconclusive)
O=C1C[C@@H](c2ccc(O)cc2)Oc2cc(O)cc(O)c21 [NARINGENIN],AC50,[3]; read-out: AC50,3.98 µM (inconclusive)
CC(=O)Oc1cc(C(F)(F)F)ccc1C(=O)O [TRIFLUSAL],AC50,[3]; read-out: AC50,3.98 µM (inconclusive)
